Like-named read-outs stand apart in the source and are kept apart here.
What was measured:
[1] = system: stable HCV 2a JFH-1 Rluc replicon cells (L31 present in NS5A); experiment: Renilla luciferase HCV replicon reporter assay, genotype 2a JFH-1; assay type: cell-based; details: Hepatitis C virus
Protocol: (§1) Evaluation of Cell-Based Anti-HCV Activity:
(§2) Antiviral potency (EC50) was determined using a Renilla luciferase (RLuc)-based HCV replicon reporter assay. To perform the assay for genotype 1 and 2a JFH-1, stable HCV 1a RLuc replicon cells (harboring a dicistronic genotype 1a H77 replicon that encodes a RLuc reporter), stable HCV 1b RLuc replicon cells (harboring a dicistronic genotype 1b Con1 replicon that encodes a RLuc reporter), or stable HCV 2a JFH-1 Rluc replicon cells (harboring a dicistronic genotype 2a JFH-1 replicon that encodes a RLuc reporter; with L31 present in NS5A) were dispensed into 384-well plates for EC50 assays. To perform the assay for genotype 2a (with M31 present in NS5A) or 2b, NS5A chimeric genotype 2a JFH-1 replicons that encodes a RLuc-Neo reporter and either genotype 2a J6 strain NS5A gene or genotype 2b MD2b-1 strain NS5A gene (both with M31 present) respectively, were either transiently transfected (t) into Huh-Lunet cells or were established as stably replicating replicon cells (s) is provided. Either cells were dispensed into 384-well plates for EC50 assays. To perform the assay for genotype 3 and 4, NS5A chimeric genotype 1b Con1 replicons that encodes a Pi-RLuc reporter and either genotype 3a S52 strain NS5A gene or genotype 4a ED43 strain NS5A gene respectively, were transiently transfected (t) into Huh-Lunet cells, which were subsequently dispensed into 384-well plates. Compounds were dissolved in DMSO at a concentration of 10 mM and diluted in DMSO either manually or using an automated pipeting instrument. Serially 3-fold diluted compounds were either manually mixed with cell culture media and added to the seeded cells or directly added to the cells using an automated instrument. DMSO was used as a negative (solvent; no inhibition) control, and the protease inhibitor ITMN-191 was included at a concentration>100×EC50 as a positive control. 72 hours later, cells were lysed and Renilla luciferase activity quantified as recommended by the manufacturer (Promega-Madison, Wis.). Non-linear regression was performed to calculate EC50 values.

[2] = system: stable HCV 1a RLuc replicon cells (dicistronic genotype 1a H77 replicon); experiment: Renilla luciferase HCV replicon reporter assay, genotype 1a; assay type: cell-based; details: Hepatitis C virus, 72 h, stable 1a H77 RLuc replicon cells
Protocol: as §1, §2

[3] = system: NS5A chimeric genotype 1b Con1 replicon with genotype 4a ED43 strain NS5A gene; experiment: Replicon assay, genotype 4a NS5A chimera; assay type: cell-based, HCV; details: Hepatitis C virus
[4] = system: NS5A chimeric genotype 2a JFH-1 replicon with genotype 2b MD2b-1 strain NS5A gene (M31 present); experiment: Replicon assay, genotype 2b NS5A chimera; assay type: cell-based, HCV; details: Hepatitis C virus
Protocol: as §1, §2

[5] = system: stable HCV 1b RLuc replicon cells (dicistronic genotype 1b Con1 replicon); experiment: Renilla luciferase HCV replicon reporter assay, genotype 1b; assay type: cell-based; details: Hepatitis C virus, 72 h, stable 1b Con1 RLuc replicon cells, 72 hours; read-out: 1b
Protocol: as §1, §2

[6] = system: NS5A chimeric genotype 1b Con1 replicon with genotype 3a S52 strain NS5A gene; experiment: Replicon assay, genotype 3a NS5A chimera; assay type: cell-based, HCV; details: Hepatitis C virus
[7] = system: NS5A chimeric genotype 2a JFH-1 replicon with genotype 2a J6 strain NS5A gene (M31 present); experiment: Replicon assay, genotype 2a J6 NS5A chimera; assay type: cell-based, HCV; details: Hepatitis C virus, read-out: 2a J6 (t) (nM), genotype 2a J6 NS5A chimeric replicon (M31), transiently transfected (t) into Huh-Lunet cells
Protocol: as §1, §2

[8] = read-out: 2a JFH (nM), genotype 2a JFH-1 replicon (L31 in NS5A), stable cells
[9] = read-out: 2a JFH, stable 2a JFH-1 Rluc replicon cells, L31 in NS5A, activity range
[10] = read-out: 4a (s) (nM), genotype 4a NS5A chimeric replicon, stable replicon cells (s)
[11] = read-out: 4a (s), (s), activity range
[12] = 2BS, read-out: 2b (s), stably replicating replicon cells (s), activity range
[13] = read-out: 2b (s) (nM), genotype 2b MD2b-1 NS5A chimeric replicon (M31), stably replicating replicon cells (s)
[14] = read-out: 3a (s) (nM), genotype 3a NS5A chimeric replicon, stable replicon cells (s)
[15] = read-out: 3a (s), (s), activity range

Structure (SMILES)	EC50 [1, 8]	EC50 [1, 9]	EC50 [2]	EC50 ([2]; activity range)	EC50 [3, 10]	EC50 [3, 11]	EC50 [4, 12]	EC50 [4, 13]	EC50 [5]	EC50 [6, 14]	EC50 [6, 15]	EC50 [7]
COC(=O)N[C@H](C(=O)N1[C@@H](C)CC[C@H]1c1ncc(-c2ccc3c(c2)COc2cc4c(ccc5nc([C@@H]6C[C@H](C)CN6C(=O)[C@@H](NC(=O)OC)[C@H](C)OC)[nH]c54)cc2-3)[nH]1)C(C)C [FU, Methyl {(2S)-1-[(2S,5S)-2-(5-{2-[(2S,4S)-1-{(2S,3S)-3-methoxy-2-[(methoxycarbonyl)amino]butanoyl}-4-methylpyrrolidin-2-yl]-1,11-dihydroisochromeno[4′,3′:6,7]naphtho[1,2-d]imidazol-9-yl}-1H-imidazol-2-yl)-5-methylpyrrolidin-1-yl]-3-methyl-1-oxobutan-2-yl}carbamate]	0.021 nM	< 0.1 nM	0.028 nM	< 0.1 nM	0.018 nM	< 0.1 nM	0.1 to 0.999 nM	0.347 nM	0.032 nM	0.337 nM	0.1 to 0.999 nM	
COC(=O)N[C@H](C(=O)N1C[C@@H](C)C[C@H]1c1nc2ccc3cc4c(cc3c2[nH]1)OCc1cc(-c2cnc([C@@H]3CC[C@H](C)N3C(=O)[C@@H](NC(=O)OC)C3CCOCC3)[nH]2)ccc1-4)C(C)C [FP, Methyl [(2S)-1-{(2S,4S)-2-[9-(2-{(2S,5S)-1-[(2S)-2-[(methoxycarbonyl)amino]-2-(tetrahydro-2H-pyran-4-yl)acetyl]-5-methylpyrrolidin-2-yl}-1H-imidazol-5-yl)-1,11-dihydroisochromeno[4′,3′:6,7]naphtho[1,2-d]imidazol-2-yl]-4-methylpyrrolidin-1-yl}-3-methyl-1-oxobutan-2-yl]carbamate]	0.016 nM	< 0.1 nM	0.016 nM	< 0.1 nM	0.017 nM	< 0.1 nM	< 0.1 nM	0.085 nM	0.024 nM	0.052 nM	< 0.1 nM	
CC[C@H]1CC[C@@H](c2ncc(-c3ccc4c(c3)COc3cc5c(ccc6nc([C@@H]7CC[C@H](C)N7C(=O)[C@@H](NC(=O)OC)[C@@H](C)OC)[nH]c65)cc3-4)[nH]2)N1C(=O)[C@@H](NC(=O)OC)C(C)C [EQ, methyl{(2S,3R)-1-[(2S,5S)-2-(9-{2-[(2S,5S)-5-ethyl-1-{(2S)-2-[(methoxycarbonyl)amino]-3-methylbutanoyl}pyrrolidin-2-yl]-1H-imidazol-5-yl}-1,11-dihydroisochromeno[4′,3′:6,7]naphtho[1,2-d]imidazol-2-yl)-5-methylpyrrolidin-1-yl]-3-methoxy-1-oxobutan-2-yl}carbamate]	0.022 nM	< 0.1 nM	0.034 nM	< 0.1 nM	0.025 nM	< 0.1 nM	0.1 to 0.999 nM	0.279 nM	0.036 nM	0.475 nM	0.1 to 0.999 nM	
CC[C@H]1CC[C@@H](c2ncc(-c3ccc4c(c3)COc3cc5c(ccc6nc([C@@H]7CC[C@H](C)N7C(=O)[C@@H](NC(=O)OC)[C@@H](C)CC)[nH]c65)cc3-4)[nH]2)N1C(=O)C(NC(=O)OC)C1CCOCC1 (stereo partly shown) [IJ]	0.012 nM	< 0.1 nM	0.027 nM	< 0.1 nM	0.036 nM	< 0.1 nM	0.1 to 0.999 nM	0.212 nM	0.029 nM	0.127 nM	0.1 to 0.999 nM	
CC[C@H]1CC[C@@H](c2ncc(-c3ccc4c(c3)COc3cc5c(ccc6nc([C@@H]7CC[C@H](C)N7C(=O)[C@@H](NC(=O)OC)C7CCOCC7)[nH]c65)cc3-4)[nH]2)N1C(=O)[C@@H](NC(=O)OC)[C@@H](C)CC [IM]	0.016 nM	< 0.1 nM	0.033 nM	< 0.1 nM	0.043 nM	< 0.1 nM	0.1 to 0.999 nM	0.212 nM	0.04 nM	0.15 nM	0.1 to 0.999 nM	
COC[C@H]1C[C@@H](c2ncc(-c3ccc4c(c3)COc3cc5c(ccc6nc([C@@H]7CC[C@H](C)N7C(=O)[C@@H](NC(=O)OC)C(C)C)[nH]c65)cc3-4)[nH]2)N(C(=O)[C@@H](NC(=O)OC)C2CCOCC2)C1 [GI, Methyl [(2S)-1-{(2S,4S)-2-[9-(2-{(2S,5S)-1-[(2S)-2-[(methoxycarbonyl)amino]-2-(tetrahydro-2H-pyran-4-yl)acetyl]-4-(methoxymethyl)pyrrolidin-2-yl}-1H-imidazol-5-yl)-1,11-dihydroisochromeno[4′,3′:6,7]naphtho[1,2-d]imidazol-2-yl]-5-methylpyrrolidin-1-yl}-3-methyl-1-oxobutan-2-yl]carbamate]	0.025 nM	< 0.1 nM	0.055 nM	< 0.1 nM	0.022 nM	< 0.1 nM	0.1 to 0.999 nM	0.193 nM	0.064 nM	0.126 nM	0.1 to 0.999 nM	
CC[C@H](C)[C@H](NC(=O)OC)C(=O)N1CCC[C@H]1c1ncc(-c2ccc3c(c2)COc2cc4c(ccc5nc([C@@H]6CCCN6C(=O)[C@@H](NC(=O)OC)[C@@H](C)CC)[nH]c54)cc2-3)[nH]1 [HH]	0.012 nM				0.011 nM			2.25 nM		0.06 nM		3 nM
CC[C@H]1CC[C@@H](c2ncc(-c3ccc4c(c3)COc3cc5c(ccc6nc([C@@H]7C[C@H](COC)CN7C(=O)[C@@H](NC(=O)OC)C(C)C)[nH]c65)cc3-4)[nH]2)N1C(=O)[C@@H](NC(=O)OC)C(C)C [ER, Methyl {(2S)-1-[(2S,4S)-2-(9-{2-[(2S,5S)-5-ethyl-1-{(2S)-2-[(methoxycarbonyl)amino]-3-methylbutanoyl}pyrrolidin-2-yl]-1H-imidazol-5-yl}-1,11-dihydroisochromeno[4′,3′:6,7]naphtho[1,2-d]imidazol-2-yl)-4-(methoxymethyl)pyrrolidin-1-yl]-3-methyl-1-oxobutan-2-yl}carbamate]	0.021 nM	< 0.1 nM	0.016 nM	< 0.1 nM	0.011 nM	< 0.1 nM	0.1 to 0.999 nM	0.852 nM	0.02 nM	2.8 nM	1 to 44 nM	
COC(=O)N[C@H](C(=O)N1C[C@@H](C)C[C@H]1c1ncc(-c2ccc3c(c2)COc2cc4c(ccc5nc([C@@H]6CC[C@H](C)N6C(=O)[C@@H](NC(=O)OC)[C@@H](C)OC)[nH]c54)cc2-3)[nH]1)C(C)C [GH, Methyl {(2S)-1-[(2S,4S)-2-(5-{2-[(2S,5S)-1-{(2S,3R)-3-methoxy-2-[(methoxycarbonyl)amino]butanoyl}-5-methylpyrrolidin-2-yl]-1,11-dihydroisochromeno[4′,3′:6,7]naphtho[1,2-d]imidazol-9-yl}-1H-imidazol-2-yl)-4-methylpyrrolidin-1-yl]-3-methyl-1-oxobutan-2-yl}carbamate]	0.011 nM	< 0.1 nM	0.02 nM	< 0.1 nM			0.1 to 0.999 nM	0.247 nM	0.027 nM	0.07 nM	< 0.1 nM	
